Publication PMC4436593, “Endoplasmic reticulum stress-independent activation of unfolded protein response kinases by a small molecule ATP-mimic” (eLife, 2015)

Tests used:
[1] = biological target: T1, GST-PERK kinase domain (580–1077 aa) (Mus musculus, UniProt Q9Z2B5); test: In vitro GST-PERK kinase assay (eIF2α phosphorylation with γ-[32P]-ATP)
T1 sequence (Q9Z2B5 580-1077): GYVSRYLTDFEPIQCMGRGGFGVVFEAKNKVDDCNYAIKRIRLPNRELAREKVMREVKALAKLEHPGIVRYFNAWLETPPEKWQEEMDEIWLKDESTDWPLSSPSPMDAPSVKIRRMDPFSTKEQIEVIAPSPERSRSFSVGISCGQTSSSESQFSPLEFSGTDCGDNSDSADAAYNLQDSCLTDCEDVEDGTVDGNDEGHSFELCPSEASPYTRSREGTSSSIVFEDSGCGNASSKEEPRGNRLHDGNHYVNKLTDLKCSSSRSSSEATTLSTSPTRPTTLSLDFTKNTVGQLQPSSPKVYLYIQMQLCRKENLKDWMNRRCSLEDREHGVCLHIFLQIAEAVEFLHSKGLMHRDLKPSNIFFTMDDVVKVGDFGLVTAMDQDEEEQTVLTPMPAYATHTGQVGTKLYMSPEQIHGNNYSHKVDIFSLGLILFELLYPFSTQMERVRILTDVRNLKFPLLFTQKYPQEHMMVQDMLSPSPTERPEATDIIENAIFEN

IRE1α-KR43 [2] = biological target: T2, IRE1α-KR43 (Homo sapiens, UniProt O75460); test: FRET-based RNA cleavage assay (fluorescent HP17 substrate) of IRE1α-KR43 RNase activity
T2 sequence (O75460 465-977 limits assumed): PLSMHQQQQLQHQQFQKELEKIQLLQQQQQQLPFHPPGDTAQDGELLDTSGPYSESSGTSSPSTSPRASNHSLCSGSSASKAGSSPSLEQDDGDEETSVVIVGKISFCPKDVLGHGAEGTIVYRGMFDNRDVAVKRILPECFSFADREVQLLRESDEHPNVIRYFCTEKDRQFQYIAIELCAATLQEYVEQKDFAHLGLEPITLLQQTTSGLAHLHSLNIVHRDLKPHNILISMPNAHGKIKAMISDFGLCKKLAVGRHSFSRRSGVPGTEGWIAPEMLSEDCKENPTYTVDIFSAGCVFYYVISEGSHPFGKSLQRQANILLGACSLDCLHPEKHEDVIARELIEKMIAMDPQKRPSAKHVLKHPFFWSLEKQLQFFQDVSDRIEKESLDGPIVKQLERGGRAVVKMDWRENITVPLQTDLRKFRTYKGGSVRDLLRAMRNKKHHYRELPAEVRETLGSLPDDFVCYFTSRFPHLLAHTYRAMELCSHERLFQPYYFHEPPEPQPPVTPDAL

IRE1α-KR43 [3] = biological target: T2, IRE1α-KR43; test: IRE1α-KR43 RNA cleavage assay with 5′ [32P]-labeled RNA substrate HP21 (kobs, single turnover); format: biochemical; design: IRE1α-KR43 comprises the soluble cytoplasmic portion of IRE1α, composed of the kinase and RNase domains plus 43 amino acids of the linker; 6xHis (N, cleaved yes); made in house; host or cells: SF21 insect cells; conditions: for fold activation of IRE1α-KR43 RNase activity / IRE1α RNase activation (in words): compounds 1 μM, IRE1α-KR43 200 nM; for fold activation of IRE1α-KR43 RNase activity: [32P]-labeled HP21; for IRE1α RNase activation (in words): versus DMSO control or cmp6/cmp7
Method: To this end, we modified the molecule by substituting urea-linked and variably m- and p-substituted phenyl groups for the benzimidazole of APY29. Diphenyl urea linkers have previously been used successfully in the design of kinase inhibitors ([Dar et al., 2008]; [Dar and Shokat, 2011]; [Korennykh et al., 2012]). In exploring the addition of this chemotype on the APY29 scaffold, we generated a panel of 10 variants (Figure 1B). Each member of the panel was tested in an RNase activity assay using recombinant IRE1α-KR43 and a labeled short hairpin RNA substrate derived from human XBP1 mRNA. IRE1α-KR43 comprises the soluble cytoplasmic portion of IRE1α, composed of the kinase and RNase domains plus 43 amino acids of the linker that bridges the kinase to its transmembrane domain.
Human IRE1α-KR43 with a hexa-histidine (6xHis) tag in its N-terminus was expressed and purified in SF21 cells as described ([Li et al., 2010]). Cells were lysed in buffer containing 20 mM Tris-HCl, pH 7.5, 600 mM NaCl, 2 mM MgCl2, 3 mM imidazole, 10% glycerol, 1% Triton X-100, 3 mM β-mercaptoethanol, COMPlete protease inhibitors (Roche), and PhosSTOP phosphatase inhibitor cocktail (Roche) and passed through an AVESTIN emulsiflex-C3 3× times for complete lysis. The lysate was cleared using centrifugation at 100,000×g. Clear lysate was allowed to incubate on Ni-NTA agarose (Qiagen) beads for 2 hr before being washed 3× times with buffer containing 20 mM Tris-HCl, pH7.5, 600 mM NaCl, 2 mM MgCl2, 30 mM imidazole, 10% glycerol, and 3 mM β-mercaptoethanol. Protein was eluted from the column by raising the imidazole concentration to 250 mM. The eluate was then passed through a HiTrap desalting column (GE Healthcare). Lastly, the 6xHis was cleaved as described ([Li et al., 2010]) and the resulting protein was then loaded onto a HisTrap HP, 5 × 5 ml column to remove the uncleaved protein. The cleaved protein was then loaded on a Mono-S 5/50 GL column (GE Healthcare), and the eluate was then concentrated to 5 mg/ml and loaded on a Superdex 200 HR 10/300 (GE Healthare) column in buffer containing 20 mM Tris-HCl pH 7.5, 250 mM NaCl, 5% Glycerol and 5 mM tris(2-carboxyethyl)phosphine (TCEP). The pure protein solution was aliquoted and stored at −80°C.

HEK293T cells = test: HEK293T cell viability (CellTiter-Blue, 24 hr); format: cell-based; conditions: STS dose response + 1 μM GSK PERK inhibitor
Method: HEK293T cells were grown in DMEM (Sigma) complete media containing 10% FBS, 10 units/ml penicillin (Invitrogen), and 10 μg/ml streptomycin (Invitrogen). Cells were plated at a density of 30,000 cells per well in 96-well black plates with clear flat bottoms (Corning, Sigma-Aldrich) 24 hr before the experiment. A 12-point semi-logarithmic dilution series of compounds was made starting at 30 μM not to exceed 0.1% DMSO after final dilution into the growth media. Viability assays were conducted over the course of 24 hr. Cell viability was determined using CellTiter-Blue (Promega) following the manufacturer's instructions. […] Experiments were done in triplicate, and mean values were computed for each data point.

[4] = tested on: IRE1α-GFP in T-REx293 cells; test: IRE1-GFP foci formation in T-REx293 cells (confocal microscopy); format: cell-based; conditions: doxycycline-induced IRE1α-GFP
Description: We next used a T-REx293 cell line, containing a genome-integrated doxycycline-inducible IRE1α-GFP fusion gene, to monitor IRE1α oligomerization in vivo ([Li et al., 2010]). In the presence of doxycycline, IRE1α-GFP was expressed and localized to the ER (Figure 2D). […] Furthermore, the foci dissolved by 8 hr of treatment as cells attenuated IRE1α signaling even in the presence of unmitigated ER stress (Figure 2D, upper panels) ([Li et al., 2010]). […] While Tm-induced foci became larger and fewer over time as previously observed, IPA-induced foci remained small and numerous.
T-REx293 cells were split 2 days before imaging onto glass-bottom micro-well dishes (MatTek) at 5 × 10^4 cells/dish. Doxycyclin-containing medium (10 nM doxycycline) was added for 24 hr, withdrawn before imaging and replaced with imaging media (Hank's Balanced Salt Solution [Gibco], 2% FBS, and 5 mM HEPES pH 7.0). Images were acquired on a spinning-disk confocal microscope as described ([Li et al., 2010]).

[5] = tested on: ATF6 transcriptional targets HERPUD1 (HERP1) and DERLIN3 (DERL3); test: ATF6 target mRNAs HERP1 and DERL3 by RT-PCR in HEK293T cells; format: cell-based; conditions: IPA 1 μM and 4 μM, Tm
Description: To assess the effects of IPA on the activity of the two other UPR branches, we first examined activation of ATF6. To this end, we monitored mRNA levels by RT-PCR for two ATF6-driven transcriptional target genes, HERP1 and DERL3, in HEK293T cells.
Cells were lysed and total RNA was collected (Total RNA Kit 1, EZ-RNA, EZNA [USA]). PolyA^+ mRNA was reverse transcribed with M-MLV (Invitrogen), and the resulting cDNA was used as a template for PCR amplification across the fragment of XBP1 cDNA containing the intron. Primers used to amplify human XBP1: 5′-[…]-3′ and 5′-[…]-3′. To amplify murine XBP1: 5′-[…]-3′ and 5′-[…]-3′. PCR conditions were as follows: 95°C for 5 min, 95°C for 1 min, 58°C for 30 s, 72°C for 30 s, and 72°C for 5 min, with 20 cycles of amplification. PCR products were resolved on a 2.5% agarose tris-acetate EDTA (TAE) gel. As previously reported, a hybrid amplicon species consisting of unspliced Xbp-1 annealed to spliced Xbp-1 can also be produced through this PCR reaction and was visible as a slower migrating band above the unspliced amplicon. The same cDNA was used as template for PCR of DERLIN-3 and HERPUD1, both ATF6 targets, and GAPDH, which was used as loading control. Primers used included the following: DERLIN-3, 5′-[…]-3′ and 5′-[…]-3′; HERPUD1-1, 5′-[…]-3′ and 5′-[…]-3′; GAPDH, 5′-[…]-3′ and 5′-[…]-3′. […]

[6] = biological target: the molecule itself; test: cell-based or functional assay
[7] = biological target: the molecule itself; test: SEC; GST-PERK purified on GST-Sepharose and Superdex 200 10/300 gel filtration in buffer B (50 mM Tris pH 7.5, 50 mM NaCl, 5 mM MgCl2, 3 mM DTT, 1% glycerol); the paper does not say how the dimer was determined
[8] = compound 20 μM, RNase activity as a function of IRE1α-KR43 concentration

`c1cc(Nc2cc(C3CC3)[nH]n2)nc(Nc2ccc3[nH]cnc3c2)n1` [APY29, reference compound] was tested, and the IC50 [1] was 690 nM, the EC50 (IRE1α-KR43 [2]) was 5200 nM and the “fold activation of IRE1α-KR43 RNase activity” value (from here on “fold activation”) (IRE1α-KR43 [3]) was “fivefold”.

For `CN[C@@H]1C[C@H]2O[C@@](C)([C@@H]1OC)n1c3ccccc3c3c4c(c5c6ccccc6n2c5c31)C(=O)NC4` [STS, staurosporine, reference compound], the “change of cell viability dose response in the presence of 1 μM GSK” value (HEK293T cells) was “No change in cell viability was observed”.

`O=C(Nc1ccc(Nc2nccc(Nc3cc(C4CC4)[nH]n3)n2)cc1)Nc1cccc(C(F)(F)F)c1` [cmp1] was tested, and the IC50 [1] was 4500 nM, the EC50 (IRE1α-KR43 [2]) was 950 nM and the “fold lower enzyme concentration at ½ kmax, obs versus no activator” value (IRE1α-KR43 [3]; compound 20 μM) was 3 fold. For the same molecule, the “1/2kmax, obs (IRE1α-KR43 concentration at half-maximal kobs)” value (IRE1α-KR43 [3]; [8]) was 3 µM, the Hill coefficient n (IRE1α-KR43 [3]; [8]) was 3.8 and the “fold activation” value (IRE1α-KR43 [3]) was 10–100 fold.

In the case of `Cc1ccc(NC(=O)Nc2ccc(Nc3nccc(Nc4cc(C5CC5)[nH]n4)n3)cc2)cc1` [cmp2], the “fold activation” value (IRE1α-KR43 [3]) is reported as 10–100 fold.

In the case of `CCc1ccc(NC(=O)Nc2ccc(Nc3nccc(Nc4cc(C5CC5)[nH]n4)n3)cc2)cc1` [cmp3], the “fold activation” value (IRE1α-KR43 [3]) is reported as 10–100 fold.

In the case of `COc1cccc(NC(=O)Nc2ccc(Nc3nccc(Nc4cc(C5CC5)[nH]n4)n3)cc2)c1` [cmp4], the “fold activation” value (IRE1α-KR43 [3]) is reported as 10–100 fold.

In the case of `COc1ccc(NC(=O)Nc2ccc(Nc3nccc(Nc4cc(C5CC5)[nH]n4)n3)cc2)cc1` [cmp5], the “fold activation” value (IRE1α-KR43 [3]) is reported as 10–100 fold.

With `O=C(Nc1ccc(I)cc1)Nc1ccc(Nc2nccc(Nc3cc(C4CC4)[nH]n3)n2)cc1` [cmp7] the “fold activation” value (IRE1α-KR43 [3]) was 900 fold.

For `O=C(Nc1ccc(Br)cc1)Nc1ccc(Nc2nccc(Nc3cc(C4CC4)[nH]n3)n2)cc1` [cmp8], the “IRE1α RNase activation (in words)” value (IRE1α-KR43 [3]) was “decreased activities”.

With `CC(C)c1ccc(NC(=O)Nc2ccc(Nc3nccc(Nc4cc(C5CC5)[nH]n4)n3)cc2)cc1` [cmp9] the “IRE1α RNase activation (in words)” value (IRE1α-KR43 [3]) was “decreased activities”.

For `CC(C)(C)c1ccc(NC(=O)Nc2ccc(Nc3nccc(Nc4cc(C5CC5)[nH]n4)n3)cc2)cc1` [cmp10], the “IRE1α RNase activation (in words)” value (IRE1α-KR43 [3]) was “decreased activities”.

tunicamycin [Tm, reference compound] was tested, and the IRE1α-GFP foci formation [4] was “rapidly induced the relocalization of IRE1α-GFP into discrete foci” and the “induction of ATF6 target genes HERP1 and DERL3” value [5] was “induced the expression of these two genes”.

B1: PERK cytosolic domain (535–1093 Δ660–868) (domain or fragment, human, UniProt Q9NZJ5 535-1093, looked up)
chain: ATTFIVRRLFHPHPHRQRKESETQCQTENKYDSVSGEANDSSWNDIKNSGYISRYLTDFEPIQCLGRGGFGVVFEAKNKVDDCNYAIKRIRLPNRELAREKVMREVKALAKLEHPGIVRYFNAWLKNTTEKLQPSSPKVYLYIQMQLCRKENLKDWMNGRCTIEERERSVCLHIFLQIAEAVEFLHSKGLMHRDLKPSNIFFTMDDVVKVGDFGLVTAMDQDEEEQTVLTPMPAYARHTGQVGTKLYMSPEQIHGNSYSHKVDIFSLGLILFELLYPFSTQMERVRTLTDVRNLKFPPLFTQKYPCEYVMVQDMLSPSPMERPEAINIIENAVFEDLDFPGKTVLRQRSR
With B1 the “rate of eIF2α phosphorylation by the PERK cytoplasmic domain against IPA concentration, fold change normalised to DMSO control; greatest activation at 500 nM IPA” value [6] was 3.3 fold.

B2: GST-PERK kinase domain (580–1077 aa) (domain or fragment, murine, UniProt Q9Z2B5 580-1077, looked up)
chain: T1 sequence (Q9Z2B5 580-1077)
notes: PERK, murine, cytosolic kinase domain, residues 580–1077; The dimer may therefore be held by GST; also called PERK-GST fusion protein; GST-PERK fusion protein; source: E. coli BL21DE3 RIPL, purified (GST-Sepharose, Superdex 200 10/300); not shown: GST, N-terminal, kept
B2 was tested, and the “stoichiometry N” value [7] was 2.
